Data: patent US10945971B2, “Sphingosine kinase type 1 inhibitors and uses thereof” (Enzo Therapeutics, Inc., priority 2008, dated 2021)

Assays:
U373 cells = experiment: Modulation of SK1-I lethality by signaling inhibitors, U373 cells; type: cell-based, human; details: U373, combined with SK1-I
Protocol: (§1) Cells were plated at 10,000 cells/well in 48-well plates and allowed to attach for 24 h. Cell proliferation was measured at the indicated times with WST-1 and absorbance was measured in a plate reader at 450 nm with background subtraction at 630 nm. Cell death was detected by trypan blue exclusion assays in which the percent of blue dye incorporating cells were determined using a light microscope and a hemacytometer as described (Yacoub et al. Mol Cancer Ther 7:314-329, 2008). Apoptotic cell death was measured by staining cell nuclei with the Hoechst dye bisbenzimide and apoptotic cells were identified by condensed, fragmented nuclear regions as described previously (Sankala et al. Cancer Res 67:10466-10474, 2007). A minimum of 300 cells was scored.

LN229 cells = type: cell-based; details: LN229, combined with SK1-I
Protocol: as §1

SMILES	effect on SK1-I lethality (U373 cells)	effect on SK1-I lethality (LN229 cells)
Oc1ccc(-c2nc(-c3ccncc3)c(-c3ccc(F)cc3)[nH]2)cc1 [SB202190]	enhanced	enhanced
N#CC(=C(/N)Sc1ccccc1N)/C(C#N)=C(\N)Sc1ccccc1N [U0126]	enhanced	enhanced
